Laboratory results from the supplement of paper PMC4862054.

How the values were obtained:
Test in all cases: normalised viability (% of control), CellTiter-Blue; higher = more viable cells (about 100 = DMSO control)
Settings in all cases: incubation time: 72 h
BT-549 [1] = test system: BT-549
Description: (§1)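 DSRT, CellTiter-Blue viability, 72 h incubation. Signal is normalised to DMSO and benzethonium chloride controls. Value is the normalised response at dose 3.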

CAL-120 [2] = test system: CAL-120
Description: as §1

DU-4475 [3] = test system: DU-4475
Description: as §1

HCC1937 [4] = test system: HCC1937
Description: as §1

HDQ-P1 [5] = test system: HDQ-P1
Description: as §1

MDA-MB-231 [6] = test system: MDA-MB-231
Description: as §1

MDA-MB-468 [7] = test system: MDA-MB-468
Description: as §1

SK-BR-3 [8] = test system: SK-BR-3
Description: as §1

BT-474 = test system: BT-474
Procedure, shortened: (§2)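 Breast cancer cell lines in 20 µl suspension were seeded onto 384-well plates pre-loaded with compound dissolved in 5 µl medium, then incubated 72 h. CellTiter-Blue reagent (2.5 µl) was added for 2 h at 37 °C and fluorescence read at 560/590 nm. Each plate was normalised to vehicle (100) and a positive kill control (0), with Z'-factor quality control. The value is normalised viability at one listed concentration of the series.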

BT-549 [9] = test system: BT-549; remark: listed apart in the source
Procedure, shortened: as §2

CAL-120 [10] = test system: CAL-120; remark: listed apart in the source
Procedure, shortened: as §2

CAL-148 = test system: CAL-148
Procedure, shortened: as §2

CAL-51 = test system: CAL-51
Procedure, shortened: as §2

CAL-85-1 = test system: CAL-85-1
Procedure, shortened: as §2

DU-4475 [11] = test system: DU-4475; remark: listed apart in the source
Procedure, shortened: as §2

HCC1143 = test system: HCC1143
Procedure, shortened: as §2

HCC1599 = test system: HCC1599
Procedure, shortened: as §2

HCC1937 [12] = test system: HCC1937; remark: listed apart in the source
Procedure, shortened: as §2

HDQ-P1 [13] = test system: HDQ-P1; remark: listed apart in the source
Procedure, shortened: as §2

Hs578T = test system: Hs578T
Procedure, shortened: as §2

MDA-MB-231 [14] = test system: MDA-MB-231; remark: listed apart in the source
Procedure, shortened: as §2

MDA-MB-436 = test system: MDA-MB-436
Procedure, shortened: as §2

MDA-MB-453 = test system: MDA-MB-453
Procedure, shortened: as §2

MDA-MB-468 [15] = test system: MDA-MB-468; remark: listed apart in the source
Procedure, shortened: as §2

MFM-223 = test system: MFM-223
Procedure, shortened: as §2

SK-BR-3 [16] = test system: SK-BR-3; remark: listed apart in the source
Procedure, shortened: as §2

COc1cc(Nc2ncc3c(n2)-c2ccc(Cl)cc2C(c2c(F)cccc2OC)=NC3)ccc1C(=O)O [MLN8237]
Settings | normalised viability [%]
BT-474, 10 nM | 103
BT-474, 1000 nM | 82.9
BT-474, 10000 nM | 58.5
BT-549 [1], 100 nM | 62.2
BT-549 [9], 10 nM | 103
BT-549 [9], 1000 nM | 62.6
BT-549 [9], 10000 nM | 32.6
CAL-51, 3 nM | 102
CAL-51, 30 nM | 91.8
CAL-51, 100 nM | 64.3
CAL-85-1, 3 nM | 89
CAL-85-1, 30 nM | 80.6
CAL-85-1, 100 nM | 69.4
CAL-120 [2], 100 nM | 68.2
CAL-120 [10], 10 nM | 104
CAL-120 [10], 1000 nM | 59.8
CAL-120 [10], 10000 nM | 33.6
CAL-148, 3 nM | 86.7
CAL-148, 30 nM | 89.9
CAL-148, 100 nM | 78.1
DU-4475 [3], 10 nM | 102
DU-4475 [11], 3 nM | 98.3
DU-4475 [11], 30 nM | 82.6
DU-4475 [11], 100 nM | 37.5
HCC1143, 10 nM | 112
HCC1143, 1000 nM | 70.7
HCC1143, 10000 nM | 51.1
HCC1599, 10 nM | 103
HCC1599, 1000 nM | 87.7
HCC1599, 10000 nM | 66.9
HCC1937 [4], 100 nM | 65.7
HCC1937 [12], 10 nM | 68
HCC1937 [12], 1000 nM | 40
HCC1937 [12], 10000 nM | 42.2
HDQ-P1 [5], 10 nM | 111
HDQ-P1 [13], 3 nM | 102
HDQ-P1 [13], 30 nM | 82.2
HDQ-P1 [13], 100 nM | 64
Hs578T, 10 nM | 113
Hs578T, 1000 nM | 59.2
Hs578T, 10000 nM | 45.6
MDA-MB-231 [6], 100 nM | 75.5
MDA-MB-231 [14], 10 nM | 101
MDA-MB-231 [14], 1000 nM | 58
MDA-MB-231 [14], 10000 nM | 33.3
MDA-MB-436, 10 nM | 133
MDA-MB-436, 1000 nM | 54.7
MDA-MB-436, 10000 nM | 70.8
MDA-MB-453, 3 nM | 91.8
MDA-MB-453, 30 nM | 50.2
MDA-MB-453, 100 nM | 44.3
MDA-MB-468 [7], 100 nM | 62.6
MDA-MB-468 [15], 10 nM | 96.7
MDA-MB-468 [15], 1000 nM | 42.6
MDA-MB-468 [15], 10000 nM | 35.2
MFM-223, 10 nM | 79.3
MFM-223, 1000 nM | 50.7
MFM-223, 10000 nM | 30.8
SK-BR-3 [8], 100 nM | 53
SK-BR-3 [16], 10 nM | 87.3
SK-BR-3 [16], 1000 nM | 59.5
SK-BR-3 [16], 10000 nM | 46.8

C=CCNC1=C2C[C@@H](C)C[C@H](OC)[C@H](O)[C@@H](C)/C=C(\C)[C@H](OC(N)=O)[C@@H](OC)/C=C\C=C(/C)C(=O)NC(=CC1=O)C2=O [Tanespimycin]
Settings | normalised viability [%]
BT-474, 10 nM | 104
BT-474, 1000 nM | 28.4
BT-474, 10000 nM | 23.9
BT-549 [1], 100 nM | 32.9
BT-549 [9], 10 nM | 81.5
BT-549 [9], 1000 nM | 31
BT-549 [9], 10000 nM | 20.4
CAL-51, 3 nM | 118
CAL-51, 30 nM | 108
CAL-51, 100 nM | 81.9
CAL-85-1, 3 nM | 91.5
CAL-85-1, 30 nM | 86.5
CAL-85-1, 100 nM | 82.4
CAL-120 [2], 100 nM | 72.7
CAL-120 [10], 10 nM | 74.2
CAL-120 [10], 1000 nM | 24.2
CAL-120 [10], 10000 nM | 16.4
CAL-148, 3 nM | 97.8
CAL-148, 30 nM | 89.7
CAL-148, 100 nM | 38.5
DU-4475 [3], 10 nM | 106
DU-4475 [11], 3 nM | 104
DU-4475 [11], 30 nM | 83.3
DU-4475 [11], 100 nM | 2.97
HCC1143, 10 nM | 64.6
HCC1143, 1000 nM | 30.2
HCC1143, 10000 nM | 29.3
HCC1599, 10 nM | 123
HCC1599, 1000 nM | 42.7
HCC1599, 10000 nM | 31.3
HCC1937 [4], 100 nM | 37.3
HCC1937 [12], 10 nM | 140
HCC1937 [12], 1000 nM | 25.8
HCC1937 [12], 10000 nM | 27.1
HDQ-P1 [5], 10 nM | 93.5
HDQ-P1 [13], 3 nM | 92.6
HDQ-P1 [13], 30 nM | 85.9
HDQ-P1 [13], 100 nM | 58.6
Hs578T, 10 nM | 77.1
Hs578T, 1000 nM | 35.8
Hs578T, 10000 nM | 24.9
MDA-MB-231 [6], 100 nM | 114
MDA-MB-231 [14], 10 nM | 92.5
MDA-MB-231 [14], 1000 nM | 49.4
MDA-MB-231 [14], 10000 nM | 28.1
MDA-MB-436, 10 nM | 88.8
MDA-MB-436, 1000 nM | 24.9
MDA-MB-436, 10000 nM | 17.5
MDA-MB-453, 3 nM | 121
MDA-MB-453, 30 nM | 11.4
MDA-MB-453, 100 nM | 7.8
MDA-MB-468 [7], 100 nM | 109
MDA-MB-468 [15], 10 nM | 113
MDA-MB-468 [15], 1000 nM | 65.5
MDA-MB-468 [15], 10000 nM | 81.3
MFM-223, 10 nM | 73.6
MFM-223, 1000 nM | 23.9
MFM-223, 10000 nM | 17.6
SK-BR-3 [8], 100 nM | 16.5
SK-BR-3 [16], 10 nM | 73.6
SK-BR-3 [16], 1000 nM | 17.4
SK-BR-3 [16], 10000 nM | 13

Cc1ccc(F)c(NC(=O)Nc2ccc(-c3cccc4[nH]nc(N)c34)cc2)c1 [Linifanib]
Settings | normalised viability [%]
BT-474, 1 nM | 113
BT-474, 100 nM | 108
BT-474, 1000 nM | 123
BT-549 [1], 10 nM | 94.8
BT-549 [9], 1 nM | 91.5
BT-549 [9], 100 nM | 96
BT-549 [9], 1000 nM | 97.5
CAL-51, 0.3 nM | 106
CAL-51, 3 nM | 105
CAL-51, 10 nM | 107
CAL-85-1, 0.3 nM | 93.9
CAL-85-1, 3 nM | 87.9
CAL-85-1, 10 nM | 98.8
CAL-120 [2], 10 nM | 95.2
CAL-120 [10], 1 nM | 90.8
CAL-120 [10], 100 nM | 91.2
CAL-120 [10], 1000 nM | 109
CAL-148, 0.3 nM | 93
CAL-148, 3 nM | 96.3
CAL-148, 10 nM | 94.4
DU-4475 [3], 1 nM | 96.5
DU-4475 [11], 0.3 nM | 103
DU-4475 [11], 3 nM | 93.6
DU-4475 [11], 10 nM | 108
HCC1143, 1 nM | 112
HCC1143, 100 nM | 89
HCC1143, 1000 nM | 93.9
HCC1599, 1 nM | 109
HCC1599, 100 nM | 108
HCC1599, 1000 nM | 109
HCC1937 [4], 10 nM | 109
HCC1937 [12], 1 nM | 147
HCC1937 [12], 100 nM | 93.6
HCC1937 [12], 1000 nM | 111
HDQ-P1 [5], 1 nM | 108
HDQ-P1 [13], 0.3 nM | 107
HDQ-P1 [13], 3 nM | 111
HDQ-P1 [13], 10 nM | 103
Hs578T, 1 nM | 114
Hs578T, 100 nM | 101
Hs578T, 1000 nM | 91.3
MDA-MB-231 [6], 10 nM | 103
MDA-MB-231 [14], 1 nM | 115
MDA-MB-231 [14], 100 nM | 101
MDA-MB-231 [14], 1000 nM | 109
MDA-MB-436, 1 nM | 108
MDA-MB-436, 100 nM | 110
MDA-MB-436, 1000 nM | 120
MDA-MB-453, 0.3 nM | 111
MDA-MB-453, 3 nM | 111
MDA-MB-453, 10 nM | 104
MDA-MB-468 [7], 10 nM | 123
MDA-MB-468 [15], 1 nM | 182
MDA-MB-468 [15], 100 nM | 111
MDA-MB-468 [15], 1000 nM | 104
MFM-223, 1 nM | 101
MFM-223, 100 nM | 96.6
MFM-223, 1000 nM | 98.4
SK-BR-3 [8], 10 nM | 119
SK-BR-3 [16], 1 nM | 117
SK-BR-3 [16], 100 nM | 112
SK-BR-3 [16], 1000 nM | 123
